# Measurements as given in PMC11995724, “Antibiotic target discovery by integrated phenotypic and activity-based profiling of electrophilic fragments” (Cell chemical biology, 2025).
# Test: in vitro
# Conditions: human, hek293t cells
row,SMILES,"viability at 48 h, 25 µM [%]"
1,"C=CC(=O)N(CC)CC(=O)N1CCCC(F)(F)C1 [2-G14, N-[2-(3,3-difluoropiperidin-1-yl)-2-oxoethyl]-N-ethylprop-2-enamide]",97.5
2,"C=CC(=O)N1CCC(NC(C)=O)(c2noc(C)n2)C1 (centres unmarked) [2-G16, N-[3-(5-methyl-1,2,4-oxadiazol-3-yl)-1-(prop-2-enoyl)pyrrolidin-3-yl]acetamide]",94.8
3,"C=CC(=O)NC1CCOCC1 [2-G17, N-(oxan-4-yl)prop-2-enamide]",93.3
4,"C=CC(=O)N1CCC(c2ncc(C(=O)O)o2)CC1 [2-G19, 2-[1-(prop-2-enoyl)piperidin-4-yl]-1,3-oxazole-5-carboxylic acid]",101
5,"C=CC(=O)N1CCC(Cc2noc(C)n2)CC1 [2-G22, 1-{4-[(5-methyl-1,2,4-oxadiazol-3-yl)methyl]piperidin-1-yl}prop-2-en-1-one]",103
6,"C=CC(=O)NCc1cn(C)nc1-c1ccccn1 [2-H03, N-{[1-methyl-3-(pyridin-2-yl)-1H-pyrazol-4-yl]methyl}prop-2-enamide]",79.4
7,"C=CC(=O)N1CCC(C(=O)Nc2cccc(N3CCCC3=O)c2)CC1 [2-H04, N-[3-(2-oxopyrrolidin-1-yl)phenyl]-1-(prop-2-enoyl)piperidine-4-carboxamide]",84.3
8,"C=CC(=O)N1CCC(C(=O)NCCC2CCS(=O)(=O)C2)CC1 (centres unmarked) [2-H05, N-[2-(1,1-dioxo-1lambda6-thiolan-3-yl)ethyl]-1-(prop-2-enoyl)piperidine-4-carboxamide]",78.2
9,"C=CC(=O)NCc1nonc1C [2-H07, N-[(4-methyl-1,2,5-oxadiazol-3-yl)methyl]prop-2-enamide]",57.6
10,"C=CC(=O)N(CC)CC(=O)N1CCc2c(ncn2CC)C1 [2-H08, N-ethyl-N-(2-{1-ethyl-1H,4H,5H,6H,7H-imidazo[4,5-c]pyridin-5-yl}-2-oxoethyl)prop-2-enamide]",84.8
11,"C=CC(=O)N1CCC(C(=O)N2CCC(CC(=O)N(C)C)CC2)CC1 [2-H09, N,N-dimethyl-2-{1-[1-(prop-2-enoyl)piperidine-4-carbonyl]piperidin-4-yl}acetamide]",61.5
12,"C=CC(=O)N1CCC(C(=O)Nc2cnn(COC)c2)CC1 [2-H10, N-[1-(methoxymethyl)-1H-pyrazol-4-yl]-1-(prop-2-enoyl)piperidine-4-carboxamide]",79
13,"C=CC(=O)N(C)Cc1nnc(C2CC2)n1C [2-H11, N-[(5-cyclopropyl-4-methyl-4H-1,2,4-triazol-3-yl)methyl]-N-methylprop-2-enamide]",72.8
14,"C=CC(=O)N1CCC(C(=O)Nc2ccn(CC(=O)N(C)C)n2)CC1 [2-H12, N-{1-[(dimethylcarbamoyl)methyl]-1H-pyrazol-3-yl}-1-(prop-2-enoyl)piperidine-4-carboxamide]",71
15,"C=CC(=O)NC(C)c1ccc(Oc2ccccc2)c(F)c1 (centres unmarked) [2-H13, N-[1-(3-fluoro-4-phenoxyphenyl)ethyl]prop-2-enamide]",68.8
16,"C=CC(=O)N1CCC(C(=O)N2CCC(C(C)(C)O)CC2)CC1 [2-H14, 1-{4-[4-(2-hydroxypropan-2-yl)piperidine-1-carbonyl]piperidin-1-yl}prop-2-en-1-one]",60.8
17,"C=CC(=O)NCCC1COCCO1 (centres unmarked) [2-H15, N-[2-(1,4-dioxan-2-yl)ethyl]prop-2-enamide]",74.3
18,"C=CC(=O)N1CCC(C)C1 (centres unmarked) [2-H17, 1-(3-methylpyrrolidin-1-yl)prop-2-en-1-one]",71.5
19,"C=CC(=O)N1CCC(C(=O)N2CCC(NC(=O)NC)CC2)CC1 [2-H18, 3-methyl-1-{1-[1-(prop-2-enoyl)piperidine-4-carbonyl]piperidin-4-yl}urea]",83
20,"C=CC(=O)NC(C(N)=O)c1ccccc1F (centres unmarked) [2-H19, N-[carbamoyl(2-fluorophenyl)methyl]prop-2-enamide]",51.9
